Converted amounts (≈) assume the structure as drawn. Read-outs that look alike come from different tables or passages of the source.
Legend:
[1] = system: Mycobacterium tuberculosis (MTB); assay: MIC by BACTEC radiometric method; format: cell-based; conditions: for MIC90: MTB
Protocol: Determination of MIC. MIC of drugs for laboratory and clinical strains of Mycobacterium tuberculosis (MTB) was determined by BACTEC radiometric method as described by Heifets (1991), “Antituberculosis Drugs: Antimicrobial Activity in vitro, Drug Susceptibility in the Chemotherapy of Microbacterial Infections, Boca Raton, Fla., CRC Press and Luna-Herrera et al., Antimicrob. Agents and Chemother. 1995, 39(2), 440-444. […] The minimal inhibitory concentration (MIC) was defined as the lowest concentrations of drug that caused GI equal to or less than that of the 1/100 dilution growth control. Capuramycin analogues SQ641, SQ922 and SQ997 were tested at concentrations ranging from […].

M. avium complex (MAC) = assay: MIC by microdilution method in 7H9 broth; format: cell-based; conditions: Mycobacterium avium; for MIC90: value in square brackets, read-out: MIC90
translocase I = translocase I (Escherichia coli, UniProt P0A6W3); assay: IC50 against translocase I; format: biochemical
[2] = system: M. smegmatis (MSMG; MC2155); assay: MIC by microdilution method in 7H9 broth; format: cell-based; conditions: MSMG MC^2155, 72 hr
MSMG and MTB (H37Rv) = assay: Minimum bactericidal concentration (MBC), MBC/MIC ratio; format: cell-based, Mycobacterium tuberculosis; M. smegmatis
MTB cultures = assay: Induction of morphological changes and bacterial disintegration; format: cell-based, Mycobacterium tuberculosis; conditions: for Turbidity of MTB cultures: within 2 days of exposure
Excerpt: Induction of morphological changes and bacterial disintegration. […] Tubercle bacilli exposed to CM analogues were typically club-shaped, with deeply stained swollen ends (see Reddy et al. Antimicrob. Agents Chemother., 2008, 52(2), 719-721).

[3] = system: M. abscessus (MAB; ATCC 700869); assay: MIC by microdilution method in 7H9 broth; format: cell-based; conditions: Mycobacteroides abscessus, ATCC700869; MAB 700869; read-out: MIC
[4] = system: M. kansaii (MKN; ATCC12478 & 35775); assay: MIC by microdilution method in 7H9 broth; format: cell-based, M. kansasii; conditions: Mycobacterium kansasii, read-out: MIC
MTB = assay: In vivo efficacy in mouse model of chronic TB disease (lung CFU); conditions: mice treated for 3 wk, starting 3 wk after infection, gav, ip, iv
Protocol: In vivo activity against MTB. In vivo efficacy of CM analogues was investigated in a mouse model of chronic TB disease (FIG. 2). Three wk after infection, mice were treated for 3 wk with the drugs by gavage (gav), intraperitoneal injection (ip), intravenous injection (iv), or intranasal (in) routes. Efficacy was analyzed by determining Colony-Forming Units (CFU) in lungs. […] Each achieved a decrease of 1-log10 lung CFU compared to the late control [LC] CFU by at least one route, which varied for each drug.

MTB inside macrophages = assay: Intracellular activity of DMSO-solubilized drug in MTB infected macrophages; format: cell-based, Mycobacterium tuberculosis; conditions: for Mean RLU at Day 7: Day 0 RLU 443, Control Day 7 4251
in vitro = format: cell-based; conditions: mouse
Protocol: (§1) The SQ997 amino acid derivatives shown in Table 2 were tested for in vitro activity against MTB, cytotoxicity for uninfected J774 cells to determine IC50, and for intracellular activity in the macrophage assay (Table 15). […] Cell viability remained similar to SQ997, or slightly better as cell morphologic changes were reduced.

MTB H37Rv = assay: MIC by broth microdilution; format: cell-based; conditions: Mycobacterium tuberculosis
Protocol: as §1

[5] = MAC strain NIH C1-1, read-out: MIC
[6] = MAC strain NIH C1-2, read-out: MIC
[7] = MAC strain NIH C1-3, read-out: MIC
[8] = MAC strain NIH C1-4, read-out: MIC
[9] = Mycolicibacterium smegmatis, MC2155|MC^2155, read-out: MIC
[10] = ATCC 12478 / ATCC 35775, MKN ATCC35775

Chain of translocase I (P0A6W3 whole entry): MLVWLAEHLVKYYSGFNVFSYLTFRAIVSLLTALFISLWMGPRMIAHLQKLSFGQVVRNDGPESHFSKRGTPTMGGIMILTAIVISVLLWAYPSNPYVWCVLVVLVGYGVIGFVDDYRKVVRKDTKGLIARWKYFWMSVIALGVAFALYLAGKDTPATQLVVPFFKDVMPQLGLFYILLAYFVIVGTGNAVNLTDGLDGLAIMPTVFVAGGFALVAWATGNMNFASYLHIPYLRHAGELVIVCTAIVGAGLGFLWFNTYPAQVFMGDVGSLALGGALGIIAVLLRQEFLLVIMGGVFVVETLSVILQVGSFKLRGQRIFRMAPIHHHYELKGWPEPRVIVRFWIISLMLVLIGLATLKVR

SMILES: CO[C@H]1[C@@H](O)[C@H](n2ccc(=O)[nH]c2=O)O[C@@H]1[C@@H](O[C@H]1OC(C(=O)Nc2ccc(F)c(F)c2)=C[C@H](O)[C@@H]1O)C(N)=O [SQ922]
- MIC ([1]; H37RV, MTB strain H37Rv): 2 µg/mL (≈ 3.51 µM)
- MIC90 [1]: 8 µg/mL (≈ 14 µM)
- MIC ([1]; MTB strain 16): 8 µg/mL (≈ 14 µM)
- MIC ([1]; MTB strain 113): 2 µg/mL (≈ 3.51 µM)
- MIC ([1]; MTB strain 158): 2 µg/mL (≈ 3.51 µM)
- MIC ([1]; MTB strain 606): 4 µg/mL (≈ 7.01 µM)
- MIC ([1]; MTB strain 847): 4 µg/mL (≈ 7.01 µM)
- MIC ([1]; MTB strain 1351): 2 µg/mL (≈ 3.51 µM)
- MIC ([1]; MTB strain 1407): 2 µg/mL (≈ 3.51 µM)
- MIC ([1]; MTB strain 1498): 4 µg/mL (≈ 7.01 µM)
- MIC ([1]; MTB strain 1665): 4 µg/mL (≈ 7.01 µM)
- MIC ([1]; MTB strain 1703): 8 µg/mL (≈ 14 µM)
- MIC ([1]; MTB strain 1760): 8 µg/mL (≈ 14 µM)
- MIC ([1]; MTB strain 1782): 8 µg/mL (≈ 14 µM)
- MIC ([1]; MTB strain 1901): 4 µg/mL (≈ 7.01 µM)
- MIC ([1]; MTB strain 1921): 4 µg/mL (≈ 7.01 µM)
- MIC ([1]; MTB strain 2224): 4 µg/mL (≈ 7.01 µM)
- MIC ([1]; MTB strain 2554): 4 µg/mL (≈ 7.01 µM)
- MIC ([1]; MTB strain 2693): 4 µg/mL (≈ 7.01 µM)
- MIC ([1]; MTB strain 8266): 2 µg/mL (≈ 3.51 µM)
- MIC ([1]; MTB strain 8642): 2 µg/mL (≈ 3.51 µM)
- MIC (M. avium complex (MAC); MAC strain 100, read-out: MIC): 4 µg/mL (≈ 7.01 µM)
- MIC (M. avium complex (MAC); MAC strain 101, read-out: MIC): 1 µg/mL (≈ 1.75 µM)
- MIC (M. avium complex (MAC); MAC strain 104, read-out: MIC): 4 µg/mL (≈ 7.01 µM)
- MIC (M. avium complex (MAC); MAC strain 109, read-out: MIC): 0.5 µg/mL (≈ 0.876 µM)
- MIC (M. avium complex (MAC); MAC strain A5, read-out: MIC): 2 µg/mL (≈ 3.51 µM)
- MIC (M. avium complex (MAC); MAC strain JSH1, read-out: MIC): 16 µg/mL (≈ 28 µM)
- MIC (M. avium complex (MAC); [5]): > 32 µg/mL
- MIC (M. avium complex (MAC); [6]): 1 µg/mL (≈ 1.75 µM)
- MIC (M. avium complex (MAC); [7]): 8 µg/mL (≈ 14 µM)
- MIC (M. avium complex (MAC); [8]): 2 µg/mL (≈ 3.51 µM)
- MIC90 (M. avium complex (MAC); MAC isolates): 16 µg/mL (≈ 28 µM)
- IC50 against translocase I (translocase I): 0.009 µg/mL (≈ 0.0158 µM)
- MIC [2]: 2 µg/mL (≈ 3.51 µM)
- MIC [2, 9]: 2 µg/mL (≈ 3.51 µM)
- Toxicity (4-day IV injections at 500 mg/kg/day): No toxicity
- MBC/MIC ratio (MSMG and MTB (H37Rv)): 1
- Bacterial disintegration / clearance of MTB cultures (MTB cultures): rapid bacterial disintegration
- Turbidity of MTB cultures (MTB cultures): marked fall in the turbidity
- MIC [3]: 16 µg/mL (≈ 28 µM)
- MIC [4, 10]: 1 µg/mL (≈ 1.75 µM)
- MIC ([4]; MKN ATCC12478): 16 µg/mL (≈ 28 µM)
- Routes by which replication of MTB in lungs was prevented (vs early control) (MTB): most routes
- Mean RLU at Day 7 (MTB inside macrophages; 2 μg/ml): 1164 RLU
- Mean RLU at Day 7 (MTB inside macrophages; 4 μg/ml): 1080 RLU
- Mean RLU at Day 7 (MTB inside macrophages; 8 μg/ml): 1111 RLU
- Mean RLU at Day 7 (MTB inside macrophages; 16 μg/ml): 496 RLU
- Mean RLU at Day 7 (MTB inside macrophages; 32 μg/ml): 311 RLU
- Mean RLU at Day 7 (MTB inside macrophages; 64 μg/ml): 134 RLU
- Intracellular activity (FIG. 1) (MTB inside macrophages; 1× and 2× MIC): showed intracellular activities

SMILES: CO[C@H]1[C@@H](O)[C@H](n2ccc(=O)[nH]c2=O)O[C@@H]1[C@@H](O[C@H]1OC(C(=O)N[C@H]2CCC[C@@H](C)NC2=O)=C[C@H](O)[C@@H]1O)C(N)=O [SQ997]
- MIC ([1]; H37RV, MTB strain H37Rv): 8 µg/mL (≈ 13.7 µM)
- MIC90 [1]: 16 µg/mL (≈ 27.4 µM)
- MIC ([1]; MTB strain 16): 16 µg/mL (≈ 27.4 µM)
- MIC ([1]; MTB strain 113): 16 µg/mL (≈ 27.4 µM)
- MIC ([1]; MTB strain 158): 8 µg/mL (≈ 13.7 µM)
- MIC ([1]; MTB strain 606): 16 µg/mL (≈ 27.4 µM)
- MIC ([1]; MTB strain 847): 16 µg/mL (≈ 27.4 µM)
- MIC ([1]; MTB strain 1351): 16 µg/mL (≈ 27.4 µM)
- MIC ([1]; MTB strain 1407): 16 µg/mL (≈ 27.4 µM)
- MIC ([1]; MTB strain 1498): 16 µg/mL (≈ 27.4 µM)
- MIC ([1]; MTB strain 1665): 16 µg/mL (≈ 27.4 µM)
- MIC ([1]; MTB strain 1703): 16 µg/mL (≈ 27.4 µM)
- MIC ([1]; MTB strain 1760): > 16 µg/mL
- MIC ([1]; MTB strain 1782): > 16 µg/mL
- MIC ([1]; MTB strain 1901): 16 µg/mL (≈ 27.4 µM)
- MIC ([1]; MTB strain 1921): 16 µg/mL (≈ 27.4 µM)
- MIC ([1]; MTB strain 2224): 16 µg/mL (≈ 27.4 µM)
- MIC ([1]; MTB strain 2554): 16 µg/mL (≈ 27.4 µM)
- MIC ([1]; MTB strain 2693): 16 µg/mL (≈ 27.4 µM)
- MIC ([1]; MTB strain 8266): 8 µg/mL (≈ 13.7 µM)
- MIC ([1]; MTB strain 8642): 16 µg/mL (≈ 27.4 µM)
- MIC (M. avium complex (MAC); 336 h, MAC isolates, 2 wk, read-out: MIC (range)): 4 to 32 µg/mL (≈ 6.85 to 54.8 µM)
- MIC (M. avium complex (MAC); MAC strain 100, read-out: MIC): 16 µg/mL (≈ 27.4 µM)
- MIC (M. avium complex (MAC); MAC strain 101, read-out: MIC): 8 µg/mL (≈ 13.7 µM)
- MIC (M. avium complex (MAC); MAC strain 104, read-out: MIC): 16 µg/mL (≈ 27.4 µM)
- MIC (M. avium complex (MAC); MAC strain 109, read-out: MIC): 8 µg/mL (≈ 13.7 µM)
- MIC (M. avium complex (MAC); MAC strain A5, read-out: MIC): 16 µg/mL (≈ 27.4 µM)
- MIC (M. avium complex (MAC); MAC strain JSH1, read-out: MIC): 32 µg/mL (≈ 54.8 µM)
- MIC (M. avium complex (MAC); [5]): 8 µg/mL (≈ 13.7 µM)
- MIC (M. avium complex (MAC); [6]): 4 µg/mL (≈ 6.85 µM)
- MIC (M. avium complex (MAC); [7]): 16 µg/mL (≈ 27.4 µM)
- MIC (M. avium complex (MAC); [8]): 8 µg/mL (≈ 13.7 µM)
- MIC90 (M. avium complex (MAC); MAC isolates): 16 µg/mL (≈ 27.4 µM)
- IC50 against translocase I (translocase I): 0.01 µg/mL (≈ 0.0171 µM)
- MIC [2]: 8 µg/mL (≈ 13.7 µM)
- MIC [2, 9]: 8 µg/mL (≈ 13.7 µM)
- Toxicity (4-day IV injections at 1000 mg/kg/day): No toxicity
- MBC/MIC ratio (MSMG and MTB (H37Rv)): 1
- Bacterial disintegration / clearance of MTB cultures (MTB cultures): rapid bacterial disintegration
- Turbidity of MTB cultures (MTB cultures): marked fall in the turbidity
- IC50 (in vitro): > 32 µg/mL
- MIC (MTB H37Rv): 8 µg/mL (≈ 13.7 µM)
- MIC [3]: 16 µg/mL (≈ 27.4 µM)
- MIC [4, 10]: 4 µg/mL (≈ 6.85 µM)
- MIC ([4]; MKN ATCC12478): 16 µg/mL (≈ 27.4 µM)
- Routes by which replication of MTB in lungs was prevented (vs early control) (MTB): gav and iv
